Laboratory results published in US20180028424A1, “COMPOSITIONS FOR IMPROVING THE HEALTH OF HAIR, SKIN, AND NAILS” (FYBRANDS CORP., priority 2015, published 2018).

Tests used:
[1] = solubility of silibinin in water; format: physicochemical
Text: In certain embodiments, the disclosure provides compositions to deliver the active ingredient to the root bulb of the hair follicle. Silibinin is not soluble in water. Creating a cream formulation could possibly lead to clogging of pores at the site of the hair follicle, which could negatively affect restoration of the follicle. In certain aspects, the present disclosure relates to delivery of silibinin using oil-based formulations. Oil is absorbed into the stratum corneum and deeper layers of the skin where the root bulb cells are located.

[2] = solubility of silibinin in acetone; format: physicochemical; settings: dissolved at 40-50° C. in Example 1
Experimental: Silibinin is soluble in acetone. We evaluated the possibility that silibinin could be first dissolved in acetone and then put into solution with an oil carrier. Since acetone evaporates to completion out of any open system, it could be removed leaving the silibinin in solution. One should keep in mind that acetone is incredibly flammable, and methods for removing acetone should be chosen carefully.
Briefly, a total desired amount of silibinin was dissolved into acetone at moderate temperature (40-50° C.). Capric/capryllic triglyceride was then added with mixing until completely mixed. […] The solution was cooled with stirring. Rosemary EO 1 was added once the temperature was below 50° C., and the product was poured into dispensing containers for use by test subjects.

In the case of `COc1cc(C2Oc3cc([C@H]4Oc5cc(O)cc(O)c5C(=O)[C@@H]4O)ccc3OC2CO)ccc1O` (some centres unmarked) [Silibinin], the solubility in water [1] is reported as “not soluble” and the solubility in acetone [2] is reported as “soluble”.
